Common to all, as to type: cell-based
For one test, the target named is KCNQ1 (Homo sapiens, UniProt P51787). Description: KCNQ1 co-expressed with CiVSP (PIP2 depletion), two-electrode voltage clamp in Xenopus oocytes. The note with it: ~10 µM CP1 injected into the oocyte; pulses to +60 mV. An excerpt: We co-expressed KCNQ1 with the voltage-dependent lipid phosphatase CiVSP[44] in Xenopus oocytes and recorded KCNQ1 currents using two-electrode voltage clamp with consecutive depolarizing voltage pulses. […] To more directly test CP1 effects, we applied CP1 to the intracellular side of the inside-out membrane patch that expressed IKs channels.
Background: Two-electrode voltage clamp holds a large cell at a set potential and records current.

The next test concerns the target CaV1.2 (Homo sapiens, UniProt Q13936). The test can be described thus: Two-electrode voltage clamp of CaV1.2 in Xenopus oocytes. The note with it: 10 µM CP1. The source says: Since CP1 has a similar effect to PIP2 in mediating VSD-pore coupling in KCNQ channels, we tested if CP1 has effects on other ion channels that are also sensitive to PIP2 or are voltage activated and share general structural features of the VSD and the pore with KCNQ. […] On the other hand, NaV1.5 and KV4.2 are voltage-gated ion channels.
Fig. 6 Effects of CP1 on other ion channels expressed in Xenopus oocytes. a Currents of Kir1.1, CaV1.2, NaV1.5, hERG, and KV4.2 before and after application of 10 µM CP1, respectively. The voltages for holding, test, and returning pulses were Kir1.1, 0 mV, −100 to +60 mV, 0; CaV1.2, −100 mV, −100 to +60, −100 mV; NaV1.5, −100, −120 to +40 mV, −120 mV; hERG, −80 mV, −90 to +60 mV, −60 mV; KV4.2, −80 mV, −100 mV to +80 mV, −40 mV; HCN4, −30 mV, −30 to −140 mV, −120 mV. b Current–voltage relations of Kir1.1 channel in the absence or presence of 10 µM CP1 (n = 7). c–g G–V relations of indicated channels with and without 10 µM CP1. The ΔV1/2 of G–V relations (mV) are CaV1.2, 3.38 ± 0.71 mV (c); NaV1.5, −2.26 ± 0.95 mV (d); hERG, 6.85 ± 1.81 mV (e); KV 4.2, −2.26 ± 2.88 mV (f); HCN4, 17.13 ± 1.59 mV (g).
Complementary DNA (cDNA) encoding human KCNQ1 (UniProtKB/Swiss‐Prot under accession no. P51787), KCNQ2 (O43526), KCNQ3 (O43525), KCNE1 (P15382), Kir1.1 (P48048), hERG (Q12809), KV4.2 (Q63881), NaV1.5 (Q14524), NaV β1 (Q07699), CaV1.2 (Q13936), CaV β1a (Q02641), CaV α2/δ1 (P54289), and HCN4 (Q9Y3Q4) were subcloned into oocyte expression vectors, respectively. Site-directed mutations of the KCNQ1 channel were all produced by overlap extension polymerase chain reaction (PCR) with high-fidelity Pfu polymerase (Stratagene, CA). The presence of the desired mutation was verified by sequencing the PCR-amplified regions. All the primer sequences used in this study are available in Supplementary Table 1. The complementary RNA (cRNA) of all these channels and mutations was transcribed in vitro with the T3, T7, or SP6 polymerase mMessage mMachine kit (Invitrogen, Thermo Fisher Scientific, MO).
The use of Xenopus laevis to obtain oocytes was approved by the Washington University Animal Studies Committee (protocol #20190030). Oocytes were manually dispersed and digested with collagenase (0.5 mg/ml, Sigma-Aldrich, Saint Louis, MO) to remove the follicle cell layer. Stage V or VI oocytes were selected and injected with cRNAs (9.2 ng) of channel or mutations. Especially, to characterize IKs, a mix of cRNAs at a molar ratio 4:1 (KCNQ1:KCNE1) was injected. For KCNQ2/KCNQ3, the molar ratio was 1:1 (KCNQ2:KCNQ3). For sodium channels, a 3:1 molar ratio (β1:NaV1.5) and for calcium channels a weight ratio 1:1:1 (β1:α2/δ1:CaV1.2) was injected, respectively. Injected oocytes were incubated in ND96 solution containing (in mM) 96 NaCl, 2 KCl, 1.8 CaCl2, 1 MgCl2, and 5 HEPES, pH 7.6, supplemented with 2.5 mM Na pyruvate and 1% penicillin–streptomycin, at 18 °C for 3–7 days before recording.
The whole-oocyte ionic currents were recorded with a GeneClamp 500B amplifier (Axon Instruments, CA) or iTEV90 amplifier (HEKA, Germany) and then sampled at 1 kHz and low-pass-filtered at 2 kHz. The Patchmaster software (HEKA, Germany) was used to acquire data. The Kir1.1 current was recorded with a high K^+ bath solution containing (in mM) 96 KCl, 4 NaCl, 1 CaCl2, 2 MgCl2, and 10 HEPES, pH 7.3–7.4. The HCN4 current was recorded in ND66 solution containing (in mM) 66 NaCl, 32 KCl, 1.8 CaCl2, 1 MgCl2, and 5 HEPES, pH 7.6. All the other potassium channels were recorded in ND96 solution. The currents of CaV1.2 channel were recorded in 40 mM Ba^2+ bath solution containing (in mM) 40 Ba(OH)2, 50 TEA-OH, 2 KOH, and 5 HEPES, adjusted to pH 7.4 with methanesulfonic acid. CP1 (DISODIUM 5-BROMO-2-[9-CHLORO-3-(SULFONATOOXY) NAPHTHO [1,2-B] THIEN-2-YL]-1H-INDOL-3-YL SULFATE, Sigma-Aldrich, MO) and Chromanol 293B (Sigma-Aldrich, MO) were dissolved in bath solutions. All the chemicals were purchased from Sigma-Aldrich. […]

Another test addresses NaV1.5 (Homo sapiens, UniProt Q14524). The test can be described thus: Cut-open oocyte recording of NaV1.5. The settings on record: 10 µM CP1.

These results are taken from publication PMC7367283, “A PIP2 substitute mediates voltage sensor-pore coupling in KCNQ activation” (Communications Biology, 2020).

The structures appear in SMILES notation.

Chain of CaV1.2 (Q13936 whole entry): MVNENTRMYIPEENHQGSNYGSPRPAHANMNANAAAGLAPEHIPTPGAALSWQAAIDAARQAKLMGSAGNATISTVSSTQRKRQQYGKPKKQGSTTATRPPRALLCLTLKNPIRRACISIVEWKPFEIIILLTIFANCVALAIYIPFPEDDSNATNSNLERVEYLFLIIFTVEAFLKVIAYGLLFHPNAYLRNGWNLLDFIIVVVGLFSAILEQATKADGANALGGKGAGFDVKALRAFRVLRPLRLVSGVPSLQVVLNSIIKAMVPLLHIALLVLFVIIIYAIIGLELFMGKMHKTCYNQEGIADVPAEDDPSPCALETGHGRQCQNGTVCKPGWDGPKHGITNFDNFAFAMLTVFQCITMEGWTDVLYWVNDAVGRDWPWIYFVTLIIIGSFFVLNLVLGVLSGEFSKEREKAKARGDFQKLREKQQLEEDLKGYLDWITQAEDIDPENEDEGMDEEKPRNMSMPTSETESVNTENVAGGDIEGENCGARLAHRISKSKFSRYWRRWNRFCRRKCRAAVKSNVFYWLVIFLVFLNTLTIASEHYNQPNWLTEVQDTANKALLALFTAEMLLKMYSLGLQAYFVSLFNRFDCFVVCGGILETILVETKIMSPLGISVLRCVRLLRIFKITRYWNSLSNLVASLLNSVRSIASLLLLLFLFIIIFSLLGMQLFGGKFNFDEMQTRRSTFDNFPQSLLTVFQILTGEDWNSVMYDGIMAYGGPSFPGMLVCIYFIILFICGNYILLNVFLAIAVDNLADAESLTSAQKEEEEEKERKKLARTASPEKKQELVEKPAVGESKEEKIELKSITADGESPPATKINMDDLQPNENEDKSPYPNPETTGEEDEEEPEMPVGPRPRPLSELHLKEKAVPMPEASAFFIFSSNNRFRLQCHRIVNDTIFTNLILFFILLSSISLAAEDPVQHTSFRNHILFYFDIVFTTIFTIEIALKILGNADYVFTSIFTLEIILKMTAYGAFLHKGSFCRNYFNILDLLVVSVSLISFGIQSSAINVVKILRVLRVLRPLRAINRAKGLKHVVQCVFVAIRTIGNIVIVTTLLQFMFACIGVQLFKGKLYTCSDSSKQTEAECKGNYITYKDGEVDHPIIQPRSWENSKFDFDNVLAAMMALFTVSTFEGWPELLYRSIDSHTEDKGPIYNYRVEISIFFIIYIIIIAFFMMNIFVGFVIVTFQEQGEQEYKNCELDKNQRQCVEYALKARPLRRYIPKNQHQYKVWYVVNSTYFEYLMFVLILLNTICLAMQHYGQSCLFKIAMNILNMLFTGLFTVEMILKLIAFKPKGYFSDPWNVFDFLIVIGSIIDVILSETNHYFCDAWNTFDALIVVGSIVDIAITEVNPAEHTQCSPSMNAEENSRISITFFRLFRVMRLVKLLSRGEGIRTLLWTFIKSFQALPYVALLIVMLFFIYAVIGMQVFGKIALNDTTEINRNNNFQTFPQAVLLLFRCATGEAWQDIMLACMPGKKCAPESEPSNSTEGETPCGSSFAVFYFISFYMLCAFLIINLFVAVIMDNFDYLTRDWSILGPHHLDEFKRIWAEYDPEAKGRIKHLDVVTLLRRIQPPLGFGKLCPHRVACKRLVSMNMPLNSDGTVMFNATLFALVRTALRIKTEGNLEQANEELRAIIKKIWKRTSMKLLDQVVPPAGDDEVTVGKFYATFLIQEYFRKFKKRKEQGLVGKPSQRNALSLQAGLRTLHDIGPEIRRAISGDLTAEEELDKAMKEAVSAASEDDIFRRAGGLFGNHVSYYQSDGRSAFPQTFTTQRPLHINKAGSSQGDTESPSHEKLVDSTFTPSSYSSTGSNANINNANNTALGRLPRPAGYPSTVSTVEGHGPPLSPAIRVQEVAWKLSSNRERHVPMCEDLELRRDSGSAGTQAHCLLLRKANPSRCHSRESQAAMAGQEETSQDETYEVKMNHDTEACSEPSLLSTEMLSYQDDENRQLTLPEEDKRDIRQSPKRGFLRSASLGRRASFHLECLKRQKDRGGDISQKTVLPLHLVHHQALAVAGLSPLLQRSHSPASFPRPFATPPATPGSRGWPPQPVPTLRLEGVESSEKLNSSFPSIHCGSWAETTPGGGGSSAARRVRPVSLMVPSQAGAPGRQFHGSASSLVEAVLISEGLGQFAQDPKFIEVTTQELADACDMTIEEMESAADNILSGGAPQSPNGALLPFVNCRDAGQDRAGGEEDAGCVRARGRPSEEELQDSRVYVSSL
Chain of CaV1.2 (Q02641 1-523 isoform Q02641-2 partner): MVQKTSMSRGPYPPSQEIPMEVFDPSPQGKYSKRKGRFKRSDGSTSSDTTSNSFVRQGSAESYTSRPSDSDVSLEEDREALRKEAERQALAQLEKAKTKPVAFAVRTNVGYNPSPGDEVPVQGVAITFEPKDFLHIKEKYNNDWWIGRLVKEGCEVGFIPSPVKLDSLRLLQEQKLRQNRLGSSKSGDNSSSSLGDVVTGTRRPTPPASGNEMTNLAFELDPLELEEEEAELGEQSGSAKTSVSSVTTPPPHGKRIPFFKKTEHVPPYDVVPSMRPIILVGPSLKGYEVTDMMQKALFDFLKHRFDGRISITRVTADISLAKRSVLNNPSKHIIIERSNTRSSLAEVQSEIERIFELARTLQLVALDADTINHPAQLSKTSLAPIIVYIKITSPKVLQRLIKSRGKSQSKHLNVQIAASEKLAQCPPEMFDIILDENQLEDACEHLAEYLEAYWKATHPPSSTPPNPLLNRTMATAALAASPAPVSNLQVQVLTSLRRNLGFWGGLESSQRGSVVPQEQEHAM
Chain of CaV1.2 (P54289 25-956 partner limits assumed): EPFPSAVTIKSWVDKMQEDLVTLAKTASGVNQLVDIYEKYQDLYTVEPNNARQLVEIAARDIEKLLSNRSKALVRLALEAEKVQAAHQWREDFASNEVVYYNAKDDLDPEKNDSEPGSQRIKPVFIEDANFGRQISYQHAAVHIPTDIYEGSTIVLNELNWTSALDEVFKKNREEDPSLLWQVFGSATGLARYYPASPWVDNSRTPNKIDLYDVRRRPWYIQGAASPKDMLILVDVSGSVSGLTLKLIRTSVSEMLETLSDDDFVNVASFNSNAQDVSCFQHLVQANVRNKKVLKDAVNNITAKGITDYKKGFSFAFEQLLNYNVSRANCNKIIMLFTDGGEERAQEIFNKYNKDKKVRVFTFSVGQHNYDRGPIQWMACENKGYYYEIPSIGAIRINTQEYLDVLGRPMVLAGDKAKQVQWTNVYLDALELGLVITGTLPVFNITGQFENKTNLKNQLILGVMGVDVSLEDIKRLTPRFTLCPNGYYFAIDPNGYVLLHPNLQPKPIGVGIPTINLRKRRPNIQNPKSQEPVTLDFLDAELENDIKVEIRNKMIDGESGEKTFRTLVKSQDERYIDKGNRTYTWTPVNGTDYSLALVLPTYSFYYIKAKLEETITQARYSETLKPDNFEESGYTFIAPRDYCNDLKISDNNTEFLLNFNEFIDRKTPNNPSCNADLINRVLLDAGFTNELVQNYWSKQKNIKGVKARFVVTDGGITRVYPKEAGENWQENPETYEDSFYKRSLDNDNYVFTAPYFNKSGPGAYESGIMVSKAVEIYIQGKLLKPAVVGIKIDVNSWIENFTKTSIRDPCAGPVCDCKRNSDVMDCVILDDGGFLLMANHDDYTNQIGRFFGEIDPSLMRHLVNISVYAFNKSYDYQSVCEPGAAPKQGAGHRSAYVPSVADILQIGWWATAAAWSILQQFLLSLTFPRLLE
Chain of CaV1.2 (P54289 957-1103 partner limits assumed): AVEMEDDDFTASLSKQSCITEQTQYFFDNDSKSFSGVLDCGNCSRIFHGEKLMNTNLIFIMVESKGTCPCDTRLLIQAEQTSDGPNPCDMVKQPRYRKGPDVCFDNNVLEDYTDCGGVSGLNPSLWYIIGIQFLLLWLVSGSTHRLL

For the compound `O=S(=O)([O-])Oc1c(-c2sc3c(ccc4cccc(Cl)c43)c2OS(=O)(=O)[O-])[nH]c2ccc(Br)cc12.[Na+].[Na+]` [CP1, DISODIUM 5-BROMO-2-[9-CHLORO-3-(SULFONATOOXY) NAPHTHO [1,2-B] THIEN-2-YL]-1H-INDOL-3-YL SULFATE], the “KCNQ1 currents after PIP2 depletion” value at KCNQ1 was “currents increased with consecutive voltage pulses”. On CaV1.2, the “ΔV1/2 of G–V relations” value is reported as 3.38 ± 0.71 mV. In addition, the “G/Gmax Mean (Fig. 6c)” value on CaV1.2 (voltage 0 mV) is 0.1903; at CaV1.2 (voltage 10 mV), 0.4214; on CaV1.2 (voltage 20 mV), 0.7222; at CaV1.2 (voltage 30 mV), 0.9242; at CaV1.2 (voltage 40 mV), 1.0000; at CaV1.2 (voltage -10 mV) it was 0.0690. The “G/Gmax Mean (Fig. 6c)” value at CaV1.2 (voltage -20 mV) is listed as 0.0228; on CaV1.2 (voltage -30 mV), 0.0102; at CaV1.2 (voltage -40 mV) it was 0.0076; on CaV1.2 (voltage -50 mV) it was 0.0080; on CaV1.2 (voltage -60 mV) it was 0.0090; at CaV1.2 (voltage -70 mV), 0.0102. For the same compound, the “G/Gmax Mean (Fig. 6c)” value on CaV1.2 (voltage -80 mV) is 0.0108; on CaV1.2 (voltage -90 mV), 0.0176; on CaV1.2 (voltage -100 mV), 0.0169. In addition, the results for the “G/Gmax Mean (Fig. 6d)” value at NaV1.5 (voltage -140 mV) and on NaV1.5 (voltage -160 mV) were 0.0026 and 0.0055, respectively.
